Reference: PubChem BioAssay AID1963971 (Molecular Pharmacology Branch, DTP, NCI, 2024)
pIC50: −log10 of the molar value.

Tested on: 953936-095-R-J2-PDC spheroids with HUVEC/MSC, viability
Test: Anticancer human tumor 953936-095-R-J2-PDC patient-derived cervical squamous cell carcinoma cell line growth inhibition [PI3K]
Settings: for pIC50: curve of first compound; for viability, T/C: stronger effect = lower value
Outline: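 Combination activity was assessed by viability in multicellular tumor spheroids carrying HUVEC and MSC components. Agents were tested with PI3K inhibitors from a Cmax-based top dose (or 10 microM) downward in half-log increments.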

[1] = second compound 0.0316 µM, first compound 0.000316 µM
[2] = second compound 0.0316 µM, first compound 0.001 µM
[3] = second compound 0.0316 µM, first compound 0.00316 µM
[4] = second compound 0.0316 µM, first compound 0.01 µM
[5] = second compound 0.0316 µM, first compound 0.0316 µM
[6] = second compound 0.0316 µM, first compound 0.1 µM
[7] = second compound 0.1 µM, first compound 0.000316 µM
[8] = second compound 0.1 µM, first compound 0.001 µM
[9] = second compound 0.1 µM, first compound 0.00316 µM
[10] = second compound 0.1 µM, first compound 0.01 µM
[11] = second compound 0.1 µM, first compound 0.0316 µM
[12] = second compound 0.1 µM, first compound 0.1 µM
[13] = second compound 0.316 µM, first compound 0.000316 µM
[14] = second compound 0.316 µM, first compound 0.001 µM
[15] = second compound 0.316 µM, first compound 0.00316 µM
[16] = second compound 0.316 µM, first compound 0.01 µM
[17] = second compound 0.316 µM, first compound 0.0316 µM
[18] = second compound 0.316 µM, first compound 0.1 µM
[19] = second compound 1 µM, first compound 0.000316 µM
[20] = second compound 1 µM, first compound 0.001 µM
[21] = second compound 1 µM, first compound 0.00316 µM
[22] = second compound 1 µM, first compound 0.01 µM
[23] = second compound 1 µM, first compound 0.0316 µM
[24] = second compound 1 µM, first compound 0.1 µM
[25] = second compound 3.16 µM, first compound 0.000316 µM
[26] = second compound 3.16 µM, first compound 0.001 µM
[27] = second compound 3.16 µM, first compound 0.00316 µM
[28] = second compound 3.16 µM, first compound 0.01 µM
[29] = second compound 3.16 µM, first compound 0.0316 µM
[30] = second compound 3.16 µM, first compound 0.1 µM
[31] = second compound 10 µM, first compound 0.000316 µM
[32] = second compound 10 µM, first compound 0.001 µM
[33] = second compound 10 µM, first compound 0.00316 µM
[34] = second compound 10 µM, first compound 0.01 µM
[35] = second compound 10 µM, first compound 0.0316 µM
[36] = second compound 10 µM, first compound 0.1 µM
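Also: spheroids exposed to compounds for seven days before read-out.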

## CC(=O)c1c(C)c2cnc(Nc3ccc(N4CCNCC4)cn3)nc2n(C2CCCC2)c1=O + Cc1nc(NC(=O)N2CCCC2C(N)=O)sc1-c1ccnc(C(C)(C)C(F)(F)F)c1
Second compound 0.0316 µM
  pIC50: < 7.00
Second compound 0.1 µM
  pIC50: < 7.00
Second compound 0.316 µM
  pIC50: < 7.00
Second compound 1 µM
  pIC50: > 9.50
Second compound 3.16 µM
  pIC50: > 9.50
Second compound 10 µM
  pIC50: > 9.50
[1]
  viability, T/C: 88.8%
[2]
  viability, T/C: 92.6%
[3]
  viability, T/C: 88.5%
[4]
  viability, T/C: 91%
[5]
  viability, T/C: 103%
[6]
  viability, T/C: 89.5%
[7]
  viability, T/C: 75.6%
[8]
  viability, T/C: 82.3%
[9]
  viability, T/C: 85.6%
[10]
  viability, T/C: 74.1%
[11]
  viability, T/C: 88%
[12]
  viability, T/C: 75.9%
[13]
  viability, T/C: 57.8%
[14]
  viability, T/C: 69.5%
[15]
  viability, T/C: 61%
[16]
  viability, T/C: 60.7%
[17]
  viability, T/C: 70.2%
[18]
  viability, T/C: 59.3%
[19]
  viability, T/C: 46.1%
[20]
  viability, T/C: 46.3%
[21]
  viability, T/C: 44.4%
[22]
  viability, T/C: 44.1%
[23]
  viability, T/C: 45.3%
[24]
  viability, T/C: 43.5%
[25]
  viability, T/C: 25.4%
[26]
  viability, T/C: 25.3%
[27]
  viability, T/C: 27.3%
[28]
  viability, T/C: 24.9%
[29]
  viability, T/C: 28.3%
[30]
  viability, T/C: 24.7%
[31]
  viability, T/C: 11.3%
[32]
  viability, T/C: 10.9%
[33]
  viability, T/C: 10.2%
[34]
  viability, T/C: 10.2%
[35]
  viability, T/C: 11.4%
[36]
  viability, T/C: 11.7%

## CC(C)n1nc(-c2ccc3oc(N)nc3c2)c2c(N)ncnc21 + Cc1nc(NC(=O)N2CCCC2C(N)=O)sc1-c1ccnc(C(C)(C)C(F)(F)F)c1
Second compound 0.0316 µM
  pIC50: 7.61
Second compound 0.1 µM
  pIC50: 7.73
Second compound 0.316 µM
  pIC50: 8.14
Second compound 1 µM
  pIC50: > 9.50
Second compound 3.16 µM
  pIC50: > 9.50
Second compound 10 µM
  pIC50: > 9.50
[1]
  viability, T/C: 83%
[2]
  viability, T/C: 86.6%
[3]
  viability, T/C: 78.5%
[4]
  viability, T/C: 68.2%
[5]
  viability, T/C: 44.8%
[6]
  viability, T/C: 16.1%
[7]
  viability, T/C: 78.4%
[8]
  viability, T/C: 74.6%
[9]
  viability, T/C: 69.2%
[10]
  viability, T/C: 64.1%
[11]
  viability, T/C: 39.2%
[12]
  viability, T/C: 15.2%
[13]
  viability, T/C: 66%
[14]
  viability, T/C: 60.7%
[15]
  viability, T/C: 56.8%
[16]
  viability, T/C: 48.7%
[17]
  viability, T/C: 30.8%
[18]
  viability, T/C: 11.8%
[19]
  viability, T/C: 45.9%
[20]
  viability, T/C: 42.9%
[21]
  viability, T/C: 38.4%
[22]
  viability, T/C: 33.9%
[23]
  viability, T/C: 19.7%
[24]
  viability, T/C: 8.92%
[25]
  viability, T/C: 26%
[26]
  viability, T/C: 24.1%
[27]
  viability, T/C: 21.5%
[28]
  viability, T/C: 18.3%
[29]
  viability, T/C: 10.8%
[30]
  viability, T/C: 5.88%
[31]
  viability, T/C: 11.7%
[32]
  viability, T/C: 10.8%
[33]
  viability, T/C: 10.2%
[34]
  viability, T/C: 9.27%
[35]
  viability, T/C: 6.73%
[36]
  viability, T/C: 3.32%
